Data as given in US20240409585A1, “MACROCYCLIC IMMUNOMODULATORS” (priority 2021, published 2024).
Numbered stars: 1 amine (or outer) side, 2 acyl side, 3 side chain; on linkers, the order of the positions; unused ones are H or OH. Bridge positions count the residues as written; N and C are the ends. Square brackets hold non-standard residues; d marks the D form. Peptide text beside a SMILES is read from it. * marks the point of attachment. ξ: configuration not given here. X22 = NC(=O)c1cccc(-c2ccc(C[C@H](N[*:1])C(=O)[*:2])cc2)c1; X36 = O=C([C@H](Cc1ccc(-c2ccsc2)cc1)N[*:1])[*:2]; Phe(4-COOH) = N[C@@H](Cc1ccc(C(=O)O)cc1)C(=O)O; Trp(7-Me) = Cc1cccc2c(C[C@H](N)C(=O)O)c[nH]c12; Bip = N[C@@H](Cc1ccc(-c2ccccc2)cc1)C(=O)O; Phe(3-CN) = N#Cc1cccc(C[C@H](N)C(=O)O)c1; Phe(3-F) = N[C@@H](Cc1cccc(F)c1)C(=O)O; Phe(3-Me) = Cc1cccc(C[C@H](N)C(=O)O)c1; Val(3-OH) = CC(C)(O)[C@H](N)C(=O)O; h4Pal = N[C@@H](CCc1ccncc1)C(=O)O; 3Pal = N[C@@H](Cc1cccnc1)C(=O)O; 4Pal = N[C@@H](Cc1ccncc1)C(=O)O; 2Thi = N[C@@H](Cc1cccs1)C(=O)O; Cha = N[C@@H](CC1CCCCC1)C(=O)O; Ile(3ξ) = CCC(C)[C@H](N)C(=O)O; AllylGly = C=CC[C@H](N)C(=O)O; Thr(3ξ) = CC(O)[C@H](N)C(=O)O; Ala(CN) = N#CC[C@H](N)C(=O)O; dOrn = NCCC[C@@H](N)C(=O)O; Carboxymethyl = O=C(O)C*; NMeA = CN[C@@H](C)C(=O)O; Nle = CCCC[C@H](N)C(=O)O; Orn = NCCC[C@H](N)C(=O)O; Dab = NCC[C@H](N)C(=O)O; ξC = NC(CS)C(=O)O

Each compound was assayed against T1, PE-labeled human PD-L1-Ig binding to Jurkat cell line over-expressing human PD-1 (Jurkat-PD-1) (Homo sapiens, UniProt Q15116) (assay: Jurkat-PD-1 Cell Binding High-Content Screening Assay (CBA): Method 1). Conditions: Jurkat-hPD-1 cells, PE-labeled PD-L1-Ig 20 nM final; read-out: Jurkat HPDL1 PD1 IC50 (uM) (Method 1).
T1 construct: expressed in transfected cells; host or cells: Jurkat
T1 sequence (Q15116 25-288): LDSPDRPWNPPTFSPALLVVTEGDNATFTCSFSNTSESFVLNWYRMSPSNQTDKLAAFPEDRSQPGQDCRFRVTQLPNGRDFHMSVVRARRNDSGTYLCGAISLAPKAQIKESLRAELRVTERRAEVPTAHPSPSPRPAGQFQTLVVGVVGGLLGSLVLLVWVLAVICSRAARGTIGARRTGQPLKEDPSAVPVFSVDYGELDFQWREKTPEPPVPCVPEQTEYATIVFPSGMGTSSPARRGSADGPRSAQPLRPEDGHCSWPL

SMILES	IC50
CC[C@H](C)[C@@H]1NC(=O)[C@H](Cc2ccc(-c3ccccc3)cc2)NC(=O)[C@H](C(C)C)NC(=O)[C@H](Cc2c[nH]c3ccccc23)NC(=O)[C@H](CC(=O)O)NC(=O)[C@H](Cc2ccc(O)cc2)NC(=O)[C@H](Cc2cccnc2)NC(=O)CSC[C@@H](C(=O)N[C@@H](C)C(N)=O)NC(=O)[C@H]([C@@H](C)O)NC(=O)[C@H](C(C)C)NC(=O)[C@H](CC(C)C)NC(=O)[C@H](CCN)NC(=O)[C@@H](CC(C)C)NC(=O)[C@H](C)N(C)C1=O [Compound 1401] ({CH2CO}-[3Pal]YDWV[Bip]I[NMeA][dL][Dab]LVTCA-NH2; thioether N-14)	0.01 µM
CCNC(=O)[C@H](CCN)NC(=O)[C@@H]1CSCC(=O)N[C@@H](Cc2cccs2)C(=O)N[C@@H](Cc2cccc(C#N)c2)C(=O)N[C@@H](CC(=O)O)C(=O)N[C@@H](Cc2cccc(C)c2)C(=O)N[C@@H](Cc2cccc(F)c2)C(=O)N[C@@H](Cc2ccc(-c3ccccc3)cc2)C(=O)N[C@@H](C(C)C)C(=O)N(C)[C@@H](C)C(=O)N[C@H](CC(C)C)C(=O)N[C@@H](CCN)C(=O)N[C@@H](CC2CCCCC2)C(=O)N[C@@H](C(C)(C)O)C(=O)N[C@@H](CO)C(=O)N1 [Compound 1840] ({CH2CO}-[2Thi][Phe(3-CN)]D[Phe(3-Me)][Phe(3-F)][Bip]V[NMeA][dL][Dab][Cha][Val(3-OH)]SC[Dab]-NHEt; thioether N-14)	0.05 µM
CC(C)C[C@@H]1NC(=O)[C@H](CCCNC(=N)N)NC(=O)[C@@H](CC(C)C)NC(=O)[C@H](C)N(C)C(=O)[C@H](CCCNC(=N)N)NC(=O)[C@H](Cc2ccc(-c3ccccc3)cc2)NC(=O)[C@H](C(C)C)NC(=O)[C@H](Cc2c[nH]c3ccccc23)NC(=O)[C@H](CC(=O)O)NC(=O)[C@H](CCc2ccncc2)NC(=O)[C@H](Cc2ccccc2)NC(=O)CSC[C@@H](C(=O)N[C@@H](C)C(N)=O)NC(=O)[C@H]([C@@H](C)O)NC(=O)[C@H](C(C)C)NC1=O [Compound 1084] ({CH2CO}-F[h4Pal]DWV[Bip]R[NMeA][dL]RLVTCA-NH2; thioether N-14)	0.09 µM
CC(C)C[C@@H]1NC(=O)[C@H](CCN)NC(=O)[C@@H](CC(C)C)NC(=O)[C@H](C)N(C)C(=O)[C@H](CCCNC(=N)N)NC(=O)[C@H](Cc2ccc(-c3cccc(C(N)=O)c3)cc2)NC(=O)[C@H](C(C)C)NC(=O)[C@H](Cc2c[nH]c3ccccc23)NC(=O)[C@H](CC(=O)O)NC(=O)[C@H](Cc2ccc(O)cc2)NC(=O)[C@H](CC(N)=O)NC(=O)CSC[C@@H](C(=O)N[C@@H](C)C(N)=O)NC(=O)[C@H]([C@@H](C)O)NC(=O)[C@H](C(C)C)NC1=O [Compound 1225] ({CH2CO}-NYDWV[X22]R[NMeA][dL][Dab]LVTCA-NH2; thioether N-14)	0.29 µM
Cc1cccc2c(C[C@@H]3NC(=O)[C@H](CC(=O)O)NC(=O)[C@H](Cc4ccc(O)cc4)NC(=O)[C@H](Cc4ccccc4)NC(=O)CSC[C@@H](C(=O)N[C@@H](C)C(N)=O)NC(=O)[C@H]([C@@H](C)O)NC(=O)[C@H](C(C)C)NC(=O)[C@H](CC(C)C)NC(=O)[C@H](CCN)NC(=O)[C@@H](CC(C)C)NC(=O)[C@H](C)N(C)C(=O)[C@H](CCCNC(=N)N)NC(=O)[C@H](Cc4ccc(-c5ccccc5)cc4)NC(=O)[C@H](C(C)C)NC3=O)c[nH]c12 [Compound 1201] ({CH2CO}-FYD[Trp(7-Me)]V[Bip]R[NMeA][dL][Dab]LVTCA-NH2; thioether N-14)	0.56 µM
CC(C)C[C@@H]1NC(=O)[C@H](CCCN)NC(=O)[C@@H](CC(C)C)NC(=O)[C@H](C)N(C)C(=O)[C@H](CCCNC(=N)N)NC(=O)[C@H](Cc2ccc(-c3ccccc3)cc2)NC(=O)[C@H](C(C)C)NC(=O)[C@H](Cc2c[nH]c3ccccc23)NC(=O)[C@H](CC(=O)O)NC(=O)[C@H](Cc2cnc[nH]2)NC(=O)[C@H](Cc2ccccc2)NC(=O)CSC[C@@H](C(=O)N[C@@H](C)C(N)=O)NC(=O)[C@H]([C@@H](C)O)NC(=O)[C@H](C(C)C)NC1=O [Compound 1129] ({CH2CO}-FHDWV[Bip]R[NMeA][dL][Orn]LVTCA-NH2; thioether N-14)	0.09 µM
CC(C)C[C@@H]1NC(=O)[C@H](CCN)NC(=O)[C@@H](CC(C)C)NC(=O)[C@H](C)N(C)C(=O)[C@H](CCCNC(=N)N)NC(=O)[C@H](Cc2ccc(-c3ccsc3)cc2)NC(=O)[C@H](C(C)C)NC(=O)[C@H](Cc2c[nH]c3ccccc23)NC(=O)[C@H](CC(=O)O)NC(=O)[C@H](Cc2ccc(O)cc2)NC(=O)[C@H](CC(N)=O)NC(=O)CSC[C@@H](C(=O)N[C@@H](C)C(N)=O)NC(=O)[C@H]([C@@H](C)O)NC(=O)[C@H](C(C)C)NC1=O [Compound 1224] ({CH2CO}-NYDWV[X36]R[NMeA][dL][Dab]LVTCA-NH2; thioether N-14)	0.04 µM

Second part, the compound after the results:

IC50	SMILES
0.03 µM	CCCC[C@@H]1NC(=O)[C@H](Cc2ccc(-c3ccccc3)cc2)NC(=O)[C@H](C(C)C)NC(=O)[C@H](Cc2c[nH]c3ccccc23)NC(=O)[C@H](CC(=O)O)NC(=O)[C@H](Cc2ccc(O)cc2)NC(=O)[C@H](CC(N)=O)NC(=O)CSC[C@@H](C(=O)N[C@@H](C)C(N)=O)NC(=O)[C@H]([C@@H](C)O)NC(=O)[C@H](C(C)C)NC(=O)[C@H](CC(C)C)NC(=O)[C@H](CCN)NC(=O)[C@@H](CC(C)C)NC(=O)[C@H](C)N(C)C1=O [Compound 1271] ({CH2CO}-NYDWV[Bip][Nle][NMeA][dL][Dab]LVTCA-NH2; thioether N-14)
0.04 µM	CC(C)C[C@@H]1NC(=O)[C@H](Cc2c[nH]c3ccccc23)NC(=O)[C@H](CC(=O)O)NC(=O)[C@H](Cc2ccc(OCC(=O)O)cc2)NC(=O)[C@H](Cc2ccccc2)NC(=O)CSC[C@@H](C(=O)N[C@@H](CC(N)=O)C(N)=O)NC(=O)[C@H](CO)NC(=O)[C@H](C(C)C)NC(=O)[C@H](CC(C)C)NC(=O)[C@H](CCN)NC(=O)[C@@H](CC(C)C)NC(=O)[C@H](C)N(C)C(=O)[C@H](Cc2cnc[nH]2)NC(=O)[C@H](Cc2ccc(-c3ccccc3)cc2)NC1=O [Compound 2096] ({CH2CO}-FY(Carboxymethyl)DWL[Bip]H[NMeA][dL][Dab]LVSCN-NH2; thioether N-14)
0.01 µM	CC(C)C[C@@H]1NC(=O)[C@H](Cc2c[nH]c3ccccc23)NC(=O)[C@H](CC(=O)O)NC(=O)[C@H](Cc2ccc(O)cc2)NC(=O)[C@H](Cc2ccccc2)NC(=O)CSC[C@@H](C(=O)NCC(N)=O)NC(=O)[C@H]([C@@H](C)O)NC(=O)[C@H](C(C)C)NC(=O)[C@H](CC(C)C)NC(=O)[C@H](CCN)NC(=O)[C@@H](CC(C)C)NC(=O)[C@H](C)N(C)C(=O)[C@H](C(C)C)NC(=O)[C@H](Cc2ccc(-c3ccccc3)cc2)NC1=O [Compound 1469] ({CH2CO}-FYDWL[Bip]V[NMeA][dL][Dab]LVTCG-NH2; thioether N-14)
0.9 µM	CC(C)C[C@@H]1NC(=O)[C@H](Cc2c[nH]c3ccccc23)NC(=O)[C@H](CC(=O)O)NC(=O)[C@H](Cc2ccc(O)cc2)NC(=O)[C@H](Cc2ccccc2)NC(=O)CSC[C@@H](C(=O)N[C@@H](C)C(N)=O)NC(=O)[C@H](CO)NC(=O)[C@H](C(C)C)NC(=O)[C@H](CC(C)C)NC(=O)[C@H](CC(=O)O)NC(=O)[C@@H](C)NC(=O)[C@H](C)N(C)C(=O)[C@H](C(C)C)NC(=O)[C@H](Cc2ccc(-c3cccc(C(N)=O)c3)cc2)NC1=O [Compound 1830] ({CH2CO}-FYDWL[X22]V[NMeA][dA]DLVSCA-NH2; thioether N-14)
0.06 µM	CCC(C)[C@@H]1NC(=O)[C@H](Cc2ccc(-c3ccccc3)cc2)NC(=O)[C@H](CC(C)C)NC(=O)[C@H](Cc2c[nH]c3ccccc23)NC(=O)[C@H](CC(=O)O)NC(=O)[C@H](Cc2ccc(OCC(=O)O)cc2)NC(=O)[C@H](C(C)O)NC(=O)CSC[C@@H](C(=O)N[C@@H](CC(N)=O)C(=O)O)NC(=O)[C@H](CC#N)NC(=O)[C@H](C(C)C)NC(=O)[C@H](CC(C)C)NC(=O)[C@H](CCN)NC(=O)[C@@H](CC(C)C)NC(=O)[C@H](C)N(C)C1=O (stereo partly drawn) [Compound 2226] ({CH2CO}-[Thr(3ξ)]Y(Carboxymethyl)DWL[Bip][Ile(3ξ)][NMeA][dL][Dab]LV[Ala(CN)]CN-OH; thioether N-14)
0.09 µM	Cc1cccc(C[C@@H]2NC(=O)[C@H](CC(=O)O)NC(=O)[C@H](Cc3ccc(OCC(=O)O)cc3)NC(=O)[C@H](C(C)O)NC(=O)CSC[C@@H](C(N)=O)NC(=O)[C@H](CO)NC(=O)[C@H](C(C)(C)O)NC(=O)[C@H](CC3CCCCC3)NC(=O)[C@H](CCN)NC(=O)[C@@H](CC(C)C)NC(=O)[C@H](C)N(C)C(=O)[C@H](Cc3ccc(OCC(=O)O)cc3)NC(=O)[C@H](Cc3ccc(-c4ccccc4)cc3)NC(=O)[C@H](Cc3ccc(C(=O)O)cc3)NC2=O)c1 (stereo partly drawn) [Compound 2264] ({CH2CO}-[Thr(3ξ)]Y(Carboxymethyl)D[Phe(3-Me)][Phe(4-COOH)][Bip]Y(Carboxymethyl)[NMeA][dL][Dab][Cha][Val(3-OH)]SC-NH2; thioether N-14)
0.03 µM	C=CC[C@@H]1NC(=O)[C@H](CC(C)C)NC(=O)[C@H](CC(N)=O)NC(=O)[C@@H](CC(C)C)NC(=O)[C@H](C)N(C)C(=O)[C@H](C(C)C)NC(=O)[C@H](Cc2ccc(-c3ccccc3)cc2)NC(=O)[C@H](CC=C)NC(=O)[C@H](Cc2cccc(C)c2)NC(=O)[C@H](CC(=O)O)NC(=O)[C@H](Cc2ccncc2)NC(=O)[C@H](Cc2ccc(OCC(=O)O)cc2)NC(=O)CSCC(C(=O)NCC(N)=O)NC(=O)[C@H](CO)NC1=O (stereo partly drawn) [Compound 1882] ({CH2CO}-Y(Carboxymethyl)[4Pal]D[Phe(3-Me)][AllylGly][Bip]V[NMeA][dL]NL[AllylGly]S[ξC]G-NH2; thioether N-14)
0.19 µM	CC(C)C[C@@H]1NC(=O)[C@H](Cc2c[nH]c3ccccc23)NC(=O)[C@H](CC(=O)O)NC(=O)[C@H](Cc2ccc(O)cc2)NC(=O)[C@H](Cc2ccccc2)NC(=O)CSC[C@@H](C(=O)N[C@@H](C)C(N)=O)NC(=O)[C@H](CO)NC(=O)[C@H](C(C)C)NC(=O)[C@H](CC(C)C)NC(=O)[C@H](CC(N)=O)NC(=O)[C@@H](CCCN)NC(=O)[C@H](C)N(C)C(=O)[C@H](C(C)C)NC(=O)[C@H](Cc2ccc(-c3ccccc3)cc2)NC1=O [Compound 1802] ({CH2CO}-FYDWL[Bip]V[NMeA][dOrn]NLVSCA-NH2; thioether N-14)
